Source: ChEMBL document CHEMBL5226355, “Design and Synthesis of Indenoisoquinolines Targeting Topoisomerase I and Other Biological Macromolecules for Cancer Chemotherapy” (J Med Chem, 2021)

What was measured:
Leishmania infantum [1] = assay: Antileishmanial activity against Leishmania infantum promastigote infected in BALB/c mouse assessed as reduction in parasite burden in spleen at 2.5 mg/kg, iv administered once every other day for 15 days; assay type: functional; design: scale not given: the % may be the effect or the level left; settings: time 15 day
Leishmania infantum [2] = assay: Antileishmanial activity against Leishmania infantum promastigote infected in BALB/c mouse assessed as reduction in parasite burden in liver at 2.5 mg/kg, iv administered once every other day for 15 days; assay type: functional; design: scale not given: the % may be the effect or the level left; settings: time 15 day
KB [3] = assay: Cytotoxicity against human KB cells; assay type: functional, cell-based
KB [4] = assay: Cytotoxicity against FR-knockdown human KB cells; assay type: functional, cell-based
Leishmania infantum [5] = assay: Antileishmanial activity against Leishmania infantum promastigotes BCN150; assay type: functional, organism-based

In the case of `O=C1c2ccccc2-c2c1c1ccc([N+](=O)[O-])cc1c(=O)n2CCCN1CCOCC1`, the Activity (Leishmania infantum [1]) is reported as over 80% and the Activity (Leishmania infantum [2]) is reported as over 80%.

In the case of `CCOC(c1ccc(COCC(=O)NCCOCCOCCOCCOCCOCCNC(=O)CC[C@H](NC(=O)c2ccc(NCc3cnc4nc(N)nc(O)c4n3)cc2)C(=O)O)cc1OC)n1cnc(CCn2c3c(c4ccccc4c2=O)C(=O)c2ccccc2-3)c1` (some centres not stated), the IC50 (KB [3]) is reported as 60 µM and the IC50 (KB [4]) is reported as 655 µM.

Work on `CC[C@@]1(O)C(=O)OCc2c1cc1n(c2=O)Cc2cc3ccccc3nc2-1` [CAMPTOTHECIN] yielded an IC50 (Leishmania infantum [5]) of 1.12 µM.

`COc1cc2c3c(n(CCCN4CCOCC4)c(=O)c2cc1OC)-c1cc2c(cc1C3=O)OCO2` [INDOTECAN] gave an IC50 (Leishmania infantum [5]) of 0.1 µM.

`NC[C@@H]1O[C@H](O[C@H]2[C@@H](O)[C@H](O[C@@H]3[C@@H](O)[C@H](N)C[C@H](N)[C@H]3O[C@H]3O[C@H](CO)[C@@H](O)[C@H](O)[C@H]3N)O[C@@H]2CO)[C@H](N)[C@@H](O)[C@@H]1O` [PAROMOMYCIN] showed an IC50 (Leishmania infantum [5]) of 42.4 µM.
